{"source": "patent US20230265037A1", "about": "“METHOD FOR MAN[…] CALCIUM CITRATE BY USING SHELL AND APPLICATION THEREOF” (KOREA RESEARCH INSTITUTE OF CHEMICAL TECHNOLOGY, priority 2020, published 2023)", "experiment": "Fluorine removal experiment (residual fluorine concentration of filtrate by ion concentration meter)", "details": "for removal rate: HF solution 1,000 ppm (experimental value 970 ppm), reacted 30 minutes", "description": "In order to confirm the fluorine removal rate using the powder or solution prepared in Examples 1 to 3, a fluorine removal experiment was performed by the following method, and the residual fluorine concentration of the filtrate remaining after the experiment was measured using an ion concentration meter and is shown in Tables 2 to 4. At this time, a Metrohm 930 compact IC Flex model from Metrohm was used as the ion concentration meter.\nA 50% hydrofluoric acid (HF) solution with a concentration of 1,000 ppm was prepared, and so that the molar ratio of calcium ion:fluoride ion is 1:2, 2:2, 10.56 g and 21.12 g of the mono calcium citrate powder recovered in Example 1 were mixed with 1 L of water to make a solution, the hydrofluoric acid and the solution were reacted for 30 minutes, and the results are shown in Table 2.\nA 50% hydrofluoric acid (HF) solution with a concentration of 1,000 ppm was prepared, 4.75 g, 9.5 g, and 19.1 g of the tricalcium citrate powder recovered in Example 2 were mixed with 1 L of water so that the molar ratio of calcium ion:fluoride ion was 1:2, 2:2, and 4:2 to form a slurry, the hydrofluoric acid and the slurry were reacted for 30 minutes, and the results are shown in Table 3. (Tricalcium citrate (C12H10Ca3O14) contains 3 moles of calcium ions per mole, so ⅓ of the theoretical amount is added.)\nA 50% hydrofluoric acid (HF) solution with a concentration of 1,000 ppm was prepared, the solution in which the shells and citric acid were dissolved prepared in Example 3 was mixed with 1 L of water and reacted for 30 minutes, and the results are shown in Table 4.", "key": {"[1]": {"details": "molar ratio calcium ion:fluoride ion 1:2"}, "[2]": {"details": "molar ratio calcium ion:fluoride ion 2:2"}}, "note": "Where “and” joins values, the source holds several entries; their conditions need not be identical. Equal values may be shown once."}
{"smiles": "O=C([O-])CC(O)(CC(=O)O)C(=O)O.O=C([O-])CC(O)(CC(=O)O)C(=O)O.[Ca+2]", "note": "[Example 1, mono calcium citrate]", "values": [{"measurement": "removal rate", "setting": "[1]", "value": 99.25, "unit": "%"}, {"measurement": "removal rate", "setting": "[2]", "value": 99.77, "unit": "%"}, {"measurement": "fluorine removal rate (summary)", "setting": "summary of Tables 2 and 3", "value": "≥ 99", "unit": "%"}]}
{"smiles": "O=C([O-])CC(O)(CC(=O)[O-])C(=O)[O-].O=C([O-])CC(O)(CC(=O)[O-])C(=O)[O-].[Ca+2].[Ca+2].[Ca+2]", "note": "[Example 2, tricalcium citrate]", "values": [{"measurement": "removal rate", "setting": "[1]", "value": 97.63, "unit": "%"}, {"measurement": "removal rate", "setting": "[2]", "value": 98.33, "unit": "%"}, {"measurement": "removal rate", "setting": "molar ratio calcium ion:fluoride ion 4:2", "value": "98.28% and 98.29%"}]}
